Where two headings read alike, the source gives them in different places.

Data set [1] is described as follows: Antibiotic blood levels in mice following intramuscular administration (paper disc-agar diffusion, Escherichia coli NIHJ as assay organism). It is filed as in vivo. Conditions: mouse, im, I.M., 20 mg./kg.; for half-life: read-out: Blood level, Half-life; for Cmax: read-out: Blood level, Peak Concentration. Here is the method:
Antibiotic blood levels were determined in mice following intramuscular administration of the test compounds at 20 mg./kg. The blood samples were collected from the orbital sinuses into heparinized capillary tubes at 15, 30, 60 and 120 minutes after administration. The antibiotic concentration was determined by the paper disc-agar diffusion method using Escherichia coli NIHJ as the assay organism.

Data set [2] concerns E. coli (9), Klebsiella sp. (2), Pr. mirabilis (1), Sal. enteritidis (1). Kind of data set: In vitro MIC, serial two-fold agar dilution, primary evaluation Gn-I (E. coli, Klebsiella sp., Pr. mirabilis, Sal. enteritidis). It is filed as cell-based. Particulars: CBPC = 100%, geometric mean of MICs. On the procedure: (§1) Minimun inhibitory concentrations (MIC) were determined by the serial two-fold agar dilution method using Steers' apparatus on Mueller-Hinton agar plate against 31 test organisms for the primary screening and also against 64 strains of Pseudomonas aeruginosa for the secondary evaluation. The results are shown in Table 1 in terms of relative activity with respect to the standard compound CBPC (carbenicillin) which was set at 100%. In each group the calculation was based on the geometric mean of the observed MICs.
GnI = E. coli (9), Klebsiella sp. (2), Pr. mirabilis (1), Sal.
(In agar dilution the substance is mixed into plates at graded concentrations.)

For data set [3], the system named is Pseudomonas aeruginosa A9843. Kind of data set: In vivo efficacy, experimental infection in mice, intramuscular treatment, Pseudomonas aeruginosa A9843. On the set-up: species or system Pseudomonas aeruginosa (infected mice). Particulars: A9843, im, 120 h, read-out: PD50 Pseudomonas aeruginosa A9843. On the procedure:
(§2) The in vivo efficacy was evaluated by intramuscular treatment against three kinds of experimental infection in mice.
(§3) The in vivo tests were carried out using the following three pathogenic organisms:
Pseudomonas aeruginosa A9843
(§4) Mice were challenged intraperitoneally with approximately a 100×LD50 dose of the pathogens in a 5% mucin suspension. The mice were treated with test compound by I.M. route immediately after the bacterial challenge.

Another data set has as its system Escherichia coli Juhl. Kind of data set: In vivo efficacy, experimental infection in mice, intramuscular treatment, Escherichia coli Juhl. On the set-up: species or system Escherichia coli (infected mice). Particulars: im, 120 h, read-out: PD50 Escherichia coli Juhl. On the procedure: as §2, §3, §4
The next data set has as its system Ps. aeruginosa. As to the kind of experiment: In vitro MIC, serial two-fold agar dilution, primary evaluation Ps (6 strains). It is filed as cell-based. Conditions: CBPC = 100%, geometric mean of MICs. On the procedure:
as §1
Ps. = Ps. aeruginosa (6).

The subject of a further data set is S. aureus. Kind of data set: In vitro MIC, serial two-fold agar dilution, primary evaluation Gp (S. aureus, 6 strains). Particulars: CBPC = 100%, geometric mean of MICs. The format is cell-based. Here is the method:
as §1
*GP = S. aureus (6 strains);

In the next data set the test system is Pseudomonas aeruginosa. Kind of data set: In vitro MIC, serial two-fold agar dilution, secondary evaluation against Pseudomonas aeruginosa strains. It is filed as cell-based. Conditions: CBPC = 100%, geometric mean of MICs. On the procedure:
as §1

Data set [4] relates to Staphylococcus aureus Smith. As to the kind of experiment: In vivo efficacy, experimental infection in mice, intramuscular treatment, Staphylococcus aureus Smith. Also on record: species or system Staphylococcus aureus (infected mice). Conditions: im, 120 h, read-out: PD50 Staphylococcus aureus Smith. Here is the method: as §2, §3
Staphylococcus aureus Smith
as §4

For data set [5], the system named is Ent. cloacae (3), Pr. vulgaris (1), Pr. morganii (1), S. marcescen (1). As to the kind of experiment: In vitro MIC, serial two-fold agar dilution, primary evaluation Gn-II (Ent. cloacae, Pr. vulgaris, Pr. morganii, S. marcescens). Conditions: CBPC = 100%, geometric mean of MICs. The format is cell-based. Here is the method: as §1
GnII = Ent. cloacae (3), Pr. vulgaris (1), Pr. morganii (1), S. marcescen

[6] abbreviates: I.M., 100×LD50 challenge i.p., 5 days.

With `O=C(O)C=Cc1ccc[n+](CC2=C(C(=O)[O-])N3C(=O)C(NC(=O)[C@H](NC(=O)c4cnc5cccnc5c4O)c4ccc(O)cc4)C3SC2)c1` (stereo partly drawn) [BB-S589, 7-[D-α-(4-Hydroxy-1,5-naphthyridine-3-carboxamido)-α-(4-hydroxyphenyl)acetamido]-3-[3-(2-carboxyvinyl)pyridinium]methyl-3-cephem-4-carboxylate], in [1], the half-life – broadly, the time needed for the level to fall by half in the phase considered – was 60 min. The Cmax in [1] was found to be 7000 ng/mL. Further, the “In vitro relative activity, primary evaluation Gn-I (13)” value (“In vitro relative activity … (13)” for short) in data set [2] (Mueller-Hinton agar) is 146%; in [2] (Lot 2), 107%. Further, the ED50 in data set [3] (setting [6]) turned out to be 4 mg/kg; in [3] (Lot 2, I.M.), 3.2 mg/kg; with Escherichia coli Juhl (Lot 2, I.M.), 1.9 mg/kg; in data set [4] (Lot 2, I.M.), 3.7 mg/kg. In addition, the “In vitro relative activity, primary evaluation Ps (6)” value in the data set on Ps. aeruginosa (Mueller-Hinton agar) turned out to be 1449%; in the data set with Ps. aeruginosa (Lot 2), 2900%. Besides, the “In vitro relative activity, primary evaluation Gp (6)” value amounted to 56% in the data set with S. aureus (Mueller-Hinton agar) and 45% with S. aureus (Lot 2). The “In vitro relative activity, secondary, Pseudomonas aeruginosa (61-64)” value (“In vitro relative activity, secondary” below) in the data set on Pseudomonas aeruginosa (61-64 strains) is reported as 1880%; with Pseudomonas aeruginosa (Lot 2), 2970%. Also, the “In vitro relative activity, primary evaluation Gn-II (6)” value in data set [5] (Mueller-Hinton agar) is reported as 14%; in data set [5] (Lot 2), 44%.
Regarding `O=C(O)Cc1cc[n+](CC2=C(C(=O)[O-])N3C(=O)C(NC(=O)[C@H](NC(=O)c4cnc5cccnc5c4O)c4ccc(O)cc4)C3SC2)cc1` (stereo partly drawn) [BB-S591, 7-[D-α-(4-Hydroxy-1,5-naphthyridine-3-carboxamido)-α-(4-hydroxyphenyl)acetamido]-3-(4-carboxymethylpyridinium)methyl-3-cephem-4-carboxylate], the half-life in [1] was 54 min. For the same molecule, the Cmax in [1] is 11000 ng/mL. Besides, the “In vitro relative activity … (13)” value in [2] (Mueller-Hinton agar) is recorded as 167%. The ED50 was found to be 12.5 mg/kg in data set [3] (setting [6]), 6.25 mg/kg with Escherichia coli Juhl (setting [6]) and 6.15 mg/kg in data set [4] (setting [6]). In addition, in the data set with Ps. aeruginosa (Mueller-Hinton agar), the “In vitro relative activity, primary evaluation Ps (6)” value is 883%. Moreover, the “In vitro relative activity, primary evaluation Gp (6)” value with S. aureus (Mueller-Hinton agar) was 31%. The “In vitro relative activity, secondary” value with Pseudomonas aeruginosa (61-64 strains) was 1160%. Besides, the “In vitro relative activity, primary evaluation Gn-II (6)” value in [5] (Mueller-Hinton agar) was found to be 18%.
For `NC(=O)c1cc[n+](CC2=C(C(=O)[O-])N3C(=O)C(NC(=O)[C@H](NC(=O)c4cnc5cccnc5c4O)c4ccc(O)cc4)C3SC2)cc1C(=O)O` (stereo partly drawn) [BB-S592, 7-[D-α-(4-Hydroxy-1,5-naphthyridine-3-carboxamido)-α-(4-hydroxyphenyl)acetamido]-3-(4-carbamoyl-3-carboxypyridinium)methyl-3-cephem-4-carboxylate], in data set [1], the half-life was determined as 55 min. In [1], the Cmax stood at 12000 ng/mL. The “In vitro relative activity … (13)” value in data set [2] (Mueller-Hinton agar) came out at 121%. The values for the ED50 (in [3] (setting [6]); in the data set with Escherichia coli Juhl (setting [6]); in data set [4] (setting [6])) were 38 mg/kg, 6.25 mg/kg and 4.6 mg/kg, respectively. Also, in the data set on Ps. aeruginosa (Mueller-Hinton agar), the “In vitro relative activity, primary evaluation Ps (6)” value was determined as 594%. For the same molecule, in the data set with S. aureus (Mueller-Hinton agar), the “In vitro relative activity, primary evaluation Gp (6)” value was found to be 56%. In addition, in the data set on Pseudomonas aeruginosa (61-64 strains), the “In vitro relative activity, secondary” value was found to be 695%. Besides, in [5] (Mueller-Hinton agar), the “In vitro relative activity, primary evaluation Gn-II (6)” value turned out to be 11%.
Take `O=C(O)CSc1cc[n+](CC2=C(C(=O)[O-])N3C(=O)C(NC(=O)[C@H](NC(=O)c4cnc5cccnc5c4O)c4ccc(O)cc4)C3SC2)cc1` (stereo partly drawn) [BB-S599, 7-[D-α-(4-Hydroxy-1,5-naphthyridine-3-carboxamido)-α-(4-hydroxyphenyl)acetamido]-3-(4-carboxymethylthiopyridinium)-methyl-3-cephem-4-carboxylate]: the half-life in [1] was determined as 54 min. Also, in data set [1], the Cmax was 7800 ng/mL. Further, the “In vitro relative activity … (13)” value in data set [2] (Mueller-Hinton agar) is reported as 260%. Also, the ED50 in [3] (setting [6]) was 8.4 mg/kg; in the data set with Escherichia coli Juhl (setting [6]) it was 2.4 mg/kg; in data set [4] (setting [6]) it was 2.2 mg/kg. Further, in the data set with Ps. aeruginosa (Mueller-Hinton agar), the “In vitro relative activity, primary evaluation Ps (6)” value worked out at 2180%. Further, the “In vitro relative activity, primary evaluation Gp (6)” value in the data set on S. aureus (Mueller-Hinton agar) is on record as 35%. For the same molecule, the “In vitro relative activity, secondary” value with Pseudomonas aeruginosa (61-64 strains) was found to be 2010%. For the same molecule, the “In vitro relative activity, primary evaluation Gn-II (6)” value in [5] (Mueller-Hinton agar) is reported as 83%.
In the case of `O=C([O-])C1=C(C[n+]2cccc(C(=O)O)c2)CSC2C(NC(=O)[C@H](NC(=O)c3cnc4cccnc4c3O)c3ccc(O)c(Cl)c3)C(=O)N12` (stereo partly drawn) [BB-S600, 7-[D-α-(4-Hydroxy-1,5-naphthyridine-3-carboxamido)-α-(3-chloro-4-hydroxyphenyl)acetamido]-3-(3-carboxypyridinium)-methyl-3-cephem-4-carboxylate], in [1], the half-life was determined as 70 min. In addition, in data set [1], the Cmax stood at 6200 ng/mL. The “In vitro relative activity … (13)” value in [2] (Mueller-Hinton agar) was 107%. Further, the ED50 in data set [3] (setting [6]) was found to be 6.2 mg/kg; in the data set on Escherichia coli Juhl (setting [6]), 2.2 mg/kg; in [4] (setting [6]), 2 mg/kg. Besides, the “In vitro relative activity, primary evaluation Ps (6)” value in the data set on Ps. aeruginosa (Mueller-Hinton agar) was found to be 2340%. The “In vitro relative activity, primary evaluation Gp (6)” value in the data set with S. aureus (Mueller-Hinton agar) turned out to be 70%. The “In vitro relative activity, secondary” value in the data set on Pseudomonas aeruginosa (61-64 strains) is 2500%. Moreover, in data set [5] (Mueller-Hinton agar), the “In vitro relative activity, primary evaluation Gn-II (6)” value was found to be 30%.
For the molecule `O=C(O)C=Cc1ccc[n+](CC2=C(C(=O)[O-])N3C(=O)C(NC(=O)[C@H](NC(=O)c4cnc5cccnc5c4O)c4ccc(O)c(Cl)c4)C3SC2)c1` (stereo partly drawn) [BB-S602, 7-[D-α-(4-Hydroxy-1,5-naphthyridine-3-carboxamido)-α-(3-chloro-4-hydroxyphenyl)acetamido]-3-(3-carboxyvinylpyridinium)-methyl-3-cephem-4-carboxylate], in data set [1], the half-life amounted to 60 min. Further, the Cmax in data set [1] was 8000 ng/mL. In addition, the “In vitro relative activity … (13)” value in data set [2] (Mueller-Hinton agar) is 94%. The ED50 in data set [3] (setting [6]) was found to be 8.4 mg/kg; in the data set on Escherichia coli Juhl (setting [6]) it was 1.4 mg/kg; in [4] (setting [6]), 0.8 mg/kg. Moreover, in the data set with Ps. aeruginosa (Mueller-Hinton agar), the “In vitro relative activity, primary evaluation Ps (6)” value amounted to 2080%. In addition, in the data set on S. aureus (Mueller-Hinton agar), the “In vitro relative activity, primary evaluation Gp (6)” value was determined as 58%. Moreover, the “In vitro relative activity, secondary” value with Pseudomonas aeruginosa (61-64 strains) came out at 1530%. The “In vitro relative activity, primary evaluation Gn-II (6)” value in data set [5] (Mueller-Hinton agar) was 63%.
In the case of `O=C(O)C=Cc1ccc[n+](CC2=C(C(=O)[O-])N3C(=O)C(NC(=O)[C@H](NC(=O)c4cnc5cccnc5c4O)c4ccccc4)C3SC2)c1` (stereo partly drawn) [BB-S603, 7-[D-α-(4-Hydroxy-1,5-naphthyridine-3-carboxamide)-α-phenyl-acetamido]-3-(3-carboxyvinylpyridinium)methyl-3-cephem-4-carboxylate], the half-life in data set [1] is 44 min. In addition, in [1], the Cmax is 9000 ng/mL. Further, in data set [2] (Mueller-Hinton agar), the “In vitro relative activity … (13)” value was 80%. The ED50 in [3] (setting [6]) worked out at 18 mg/kg; in the data set with Escherichia coli Juhl (setting [6]), 2.2 mg/kg; in data set [4] (setting [6]) it was 1.15 mg/kg. In addition, the “In vitro relative activity, primary evaluation Ps (6)” value with Ps. aeruginosa (Mueller-Hinton agar) is listed as 1150%. Further, the “In vitro relative activity, primary evaluation Gp (6)” value with S. aureus (Mueller-Hinton agar) turned out to be 73%. Further, in the data set on Pseudomonas aeruginosa (61-64 strains), the “In vitro relative activity, secondary” value was found to be 1270%. In [5] (Mueller-Hinton agar), the “In vitro relative activity, primary evaluation Gn-II (6)” value was 38%.

The values above are taken from patent US4198504A, “[3-(Pyridinium)-7-(naphthyiridinyl carbonylamino)acetamido]cephalosporanic acid derivatives” (Bristol-Myers Company, priority 1978, dated 1980).
